“And” between values parts separate entries of the source, which are not always exact repeats. Identical values can stand only once.
Tests used:
[1] = target: T1, 11-beta-HSD1 (Homo sapiens, UniProt P28845); experiment: Inhibitory activity of 11-beta-HSD1 in the microsomal fraction of transfected HEK293 cells (SPA, [3H]-cortisone); assay type: biochemical; conditions: microsomes of HEK-293 cells transfected with 11-beta-HSD1
T1 construct: expressed in transfected cells; host or cells: HEK-293 cells, stably transfected; microsome preparation
T1 sequence (P28845 whole entry): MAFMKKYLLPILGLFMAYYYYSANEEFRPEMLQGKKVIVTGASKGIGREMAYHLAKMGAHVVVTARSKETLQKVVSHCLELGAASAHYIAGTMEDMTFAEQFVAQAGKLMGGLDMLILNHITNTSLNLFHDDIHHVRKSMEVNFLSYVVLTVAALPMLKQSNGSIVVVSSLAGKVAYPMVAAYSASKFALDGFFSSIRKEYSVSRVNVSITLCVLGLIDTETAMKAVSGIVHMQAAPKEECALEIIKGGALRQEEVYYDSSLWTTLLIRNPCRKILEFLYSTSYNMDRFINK
Description: Determination of the Inhibitory Activity of 11-Beta-HSD1 in the Microsomal Fraction of Transfected HEK293 Cells
99 μL of a reaction mixture which contained 80 nM [^3H]-cortisone, 1 mM NADPH and 40 μg/mL of the microsome preparations of HEK-293 cells stably transfected with the 11-beta-HSD1 clone, dissolved in assay buffer (50 mM HEPES, 100 mM KCl, 5 mM NaCl, 2 mM MgCl2/100 mL H2O) were added to a 96-well plate. The inhibitors to be analyzed were dissolved in 100% DMSO, and the final concentration in the reaction was 1%.
The reaction mixture was incubated for 2 hours at 37° C. under stirring. The total reaction volume per well was 100 μL. The stop solution (5 mg/mL ProteinA Spa bead, Superblock Blocking Buffer, 30 μM glycyrrhetinic acid, 1 μg/mL anticortisol monoclonal antibody) was simultaneously prepared, being incubated under stirring for two hours at rt and protected from light. Once the two hours lapsed, 50 μL of the stop solution were dispensed to each well in the reaction plate and was left to incubate for two hours at rt under stirring and protected from light. Once the second incubation ended, the plate was read in a 1450 Microbeta Tritalux (Wallac®) scintillation counter for 30 seconds per well.

[2] = target: T2, 11-beta-HSD2 (Homo sapiens, UniProt P80365); experiment: Inhibitory activity of 11-beta-HSD2 in the microsomal fraction of transfected HEK293 cells (SPA, [3H]-cortisol); assay type: biochemical; conditions: for inhibition at 10 µM: microsomes of HEK-293 cells transfected with 11-beta-HSD2
T2 construct: expressed in transfected cells; host or cells: HEK-293 cells, stably transfected; microsome preparation
T2 sequence (P80365 1-405): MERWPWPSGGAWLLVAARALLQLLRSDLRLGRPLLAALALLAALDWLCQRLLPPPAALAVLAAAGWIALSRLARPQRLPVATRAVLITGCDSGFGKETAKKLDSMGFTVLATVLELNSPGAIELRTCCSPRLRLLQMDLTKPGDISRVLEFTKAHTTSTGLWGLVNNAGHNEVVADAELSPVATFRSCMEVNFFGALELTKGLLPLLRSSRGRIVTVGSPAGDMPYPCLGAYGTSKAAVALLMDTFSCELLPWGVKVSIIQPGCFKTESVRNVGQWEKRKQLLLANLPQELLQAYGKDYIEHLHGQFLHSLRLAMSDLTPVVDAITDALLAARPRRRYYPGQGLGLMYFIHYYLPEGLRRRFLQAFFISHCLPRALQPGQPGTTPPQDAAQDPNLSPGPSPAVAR
Description: Determination of the Inhibitory Activity of 11-Beta-HSD2 in the Microsomal Fraction of Transfected HEK293 Cells
59 μL of the reaction mixture were added to a 96-well plate. This contained 1 mM NAD^+ and 80 μg/mL of the microsome preparations of HEK-293 cells stably transfected with the 11-beta-HSD2 clone, dissolved in assay buffer (50 mM HEPES, 100 mM KCl, 5 mM NaCl, 2 mM MgCl2/100 mL H2O). The inhibitors to be analyzed were dissolved in 100% DMSO, and the final concentration in the reaction was 1%. The reaction mixture was pre-incubated for 30 minutes at 37° C. under stirring. 40 μL of the reaction substrate, 3.2 nM [^3H]-cortisol dissolved in assay buffer were added. It was incubated at 37° C. for two hours under stirring. The stop solution was simultaneously prepared, being incubated for two hours at rt and protected from light. After this time 50 μL of the stop solution were added to end the reaction, and it was incubated for two hours at rt under stirring and protected from light. The signal emitted by SPA beads-cortisol complex was measured in the 1450 Microbeta Tritalux (Wallac®) scintillation counter for 30 seconds per well. This case measures the binding to the substrate, and not to the product as in the assay for the type 1 isoenzyme.

[3] = Acute glaucoma model: glucose-induced ocular hypertension in rabbit (IOP); assay type: in vivo, Chinchilla Bastard rabbits; conditions: for Glucose-induced Hypertension Ratio Inhibitor/Timolol: 0.5% suspension versus Timolol maleate solution 0.5%; for Glucose-induced Hypertension % Inhibition: eye instillation of 0.5% suspension 15 minutes before 5% glucose bolus 20 ml/kg
Description: In Vivo Efficacy of 11beta-HSD1 Inhibitors
In vivo efficacy of 11beta-HSD1 inhibitors was evaluated in an acute glaucoma model based on a glucose-induced ocular hypertension model in rabbit.
Male Chinchilla Bastard rabbits (1.5-2.5 kg) were obtained from Charles River (Germany) and were kept under controlled environmental conditions (12-hour light/12-hour dark cycle) with food and drinking water ad libitum. Animals were treated in accordance with the ARVO Statement for the Use of Animals in Ophthalmic and Vision Research.
In order to measure intraocular pressure (IOP) according to the glucose-induced ocular hypertension model, rabbits were restrained and basal IOP was determined using a Tonolab tonometer (Tiolat Oy) at least 1 hour after initial immobilization. Acute ocular hypertension was induced by a bolus of 5% glucose solution at 20 ml/kg into the marginal ear vein and IOP was determined 5, 10, 20, 30 and 40 minutes later. Eye treatment instillation was performed 15 minutes before the hypertension induction and both eyes of each animal were instilled with the same solution, either the vehicle, the 11beta-HSD1 inhibitor suspension at 0.5% or Timolol maleate solution at 0.5% as a positive control.

Compound | inhibition at 10 µM [1] | inhibition at 10 µM [2] | Glucose-induced Hypertension Ratio Inhibitor/Timolol [3] | Glucose-induced Hypertension % Inhibition [3] | % Inhibition (10 μM) 11-beta-HSD2 ([2]; microsomes of HEK-293 cells transfected with 11-beta-HSD2, 10 µM)
O=C(CCCC(=O)N1CCCC2CCCCC21)NCCc1ccccc1 (centres unmarked) [Ia.59, 5-(octahydroquinolin-1-yl)-5-oxopentanoic acid phenethylamide] | 100% | 0% |  |  | 
O=C(CCCC(=O)N1CCCC2CCCCC21)NCc1ccccc1 (centres unmarked) [Ia.61, 5-(octahydroquinolin-1-yl)-5-oxopentanoic acid benzylamide] | 93% | 0% |  |  | 
CN(Cc1cccc2ccccc12)C(=O)CCCC(=O)N1CCCC2CCCCC21 (centres unmarked) [Ia.66, 5-(octahydroquinolin-1-yl)-5-oxopentanoic acid methylnaphthalen-1-ylmethylamide] | 100% | 6% |  |  | 
O=C(CCCCC(=O)N1CCCC2CCCCC21)NC1C2CC3CC(C2)CC1C3 (centres unmarked) [Ia.96, 6-(octahydroquinolin-1-yl)-6-oxohexanoic acid tricyclo[3.3.1.1^3,7]decan-2-ylamide] |  |  | 0.84 | 46% | 
O=C(CCCC(=O)N1CCCC2CCCCC21)NCCc1cccc(F)c1 (centres unmarked) [Ia.198, 5-(octahydroquinolin-1-yl)-5-oxopentanoic acid N-(3-fluorophenethyl)amide] |  |  | 0.65 | 41% | 
O=C(CCCC(=O)N1CCCC2CCCCC21)NC1CCCc2ccccc21 (centres unmarked) [Ia.224, 5-(octahydroquinolin-1-yl)-5-oxopentanoic acid N-(1,2,3,4-tetrahydronaphthalen-1-yl)amide] |  |  | 0.25 | 16% | 
CN(Cc1cccc2ccccc12)C(=O)CCCNC(=O)N1CCCC2CCCCC21 (centres unmarked) [Ib.8, Octahydroquinoline-1-carboxylic acid [3-(methylnaphthalen-1-ylmethylcarbamoyl)propyl]amide] | 100% |  |  |  | 0% and 5%
O=C(CCCNC(=O)N1CCCC2CCCCC21)N1CCC2CCCCC2C1 (centres unmarked) [Ib.18, Octahydroquinoline-1-carboxylic acid [4-(octahydroisoquinolin-2-yl)-4-oxobutyl]amide] | 100% | 10% |  |  | 
CN(Cc1cccc2ccccc12)C(=O)CCCNC(=O)N1CCC2CCCCC2C1 (centres unmarked) [Ib.80, Octahydroisoquinoline-2-carboxylic acid [3-(methylnaphthalen-1-ylmethylcarbamoyl)propyl]amide] | 100% | 13% |  |  | 
O=C(NCCC(=O)N1CCCC2CCCCC21)c1cc2ccccc2cn1 (centres unmarked) [Id.6, Isoquinoline-3-carboxylic acid [3-(octahydroquinolin-1-yl)-3-oxopropyl]amide] | 100% | 0% |  |  | 
O=C(NCCC(=O)N1CCCC2CCCCC21)c1ccc2ccccc2n1 (centres unmarked) [Id.12, Quinoline-2-carboxylic acid[3-(octahydroquinolin-1-yl)-3-oxopropyl]amide] | 100% | 0% | 0.87 | 50% | 
O=C1c2ccccc2C(=O)N1CCCCC(=O)N1CCCC2CCCCC21 (centres unmarked) [If.1, 2-(5-(octahydroquinolin-1-yl)-5-oxopentyl)isoindoline-1,3-dione] | 100% | 0% | 0.90 | 51% | 
O=C(CCCCN1C(=O)c2ccccc2C1=O)N1CCC2CCCCC2C1 (centres unmarked) [If.8, 2-(5-(octahydroisoquinolin-2-yl)-5-oxopentyl) isoindoline-1,3-dione] | 100% | 4% |  |  | 
O=C1c2ccc(F)cc2C(=O)N1CCCCC(=O)N1CCCC2CCCCC21 (centres unmarked) [Ik.25, 5-fluoro-2-[5-(octahydroquinolin-1-yl)-5-oxopentyl]isoindole-1,3-dione] | 100% | 6% |  |  | 

Source: patent US8822452B2, “Inhibitor compounds of 11-beta-hydroxysteroid dehydrogenase type 1” (Laboratorios Salvat, S.A., priority 2009, dated 2014)
